29 compounds from patent US20240043470A1, “MACROCYCLIC COMPOUNDS AS PROTEASOME INHIBITORS” (CORNELL UNIVERSITY, priority 2017, published 2024) can be followed below.

The target of one test is β5c of hu c-20S (Homo sapiens (Human), UniProt P20618+P28074). Description: IC50 determination against β5c of human constitutive proteasome (suc-LLVY-AMC hydrolysis).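 Further: IC50 obtained by fitting initial reaction velocities to a dose-dependent inhibition model, with SDS present as proteasome activator.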 The test is classed as biochemical. The settings on record: 0.2 nM c-20S, 25 μM suc-LLVY-AMC.
The target in the next test is β5i of hu i-20S (Homo sapiens (Human), UniProt P20618+P28062). Description: IC50 determination against β5i of human immunoproteasome (Ac-ANW-AMC hydrolysis).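 On all read-outs here: enzyme activity taken as the initial reaction velocity per well, with SDS added to activate the proteasome.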 It is filed as biochemical. The settings on record: for IC50: β5i, 0.4 nM i-20S, 15 μM Ac-ANW-AMC.

One may read the IC50 as the concentration at which inhibition is half-maximal. Low readings indicate inhibition by little substance, high ones a need for much substance. On to `Cc1ccc(CNC(=O)[C@@H]2Cc3cccc(c3)Oc3cccc(c3)C[C@H](NC(=O)OC(C)(C)C)C(=O)N[C@@H](CCc3ccccc3)C(=O)N2)cc1` [Compound 1-68, tert-Butyl-((5S,8S,11S)-5-((4-methylbenzyl)carbamoyl)-7,10-dioxo-8-phenethyl-2-oxa-6,9-diaza-1,3(1,3)-dibenzenacyclododecaphane-11-yl)carbamate], for which the IC50 against β5c of hu c-20S is 17.9 µM; against β5i of hu i-20S, greater than 100 µM.

`O=C1CCc2cccc(c2)Oc2ccc(cc2)C[C@@H](C(=O)NCc2ccccc2F)NC(=O)[C@H](CC(=O)N2CCC[C@@H]2c2ccccc2)N1` [Compound 2-02-B, (5S,8S)—N-(2-Fluorobenzyl)-7,10-dioxo-8-(2-oxo-2-((R)-2-phenylpyrrolidin-1-yl)ethyl)-2-oxa-6,9-diaza-1(1,3),3(1,4)-dibenzenacyclododecaphane-5-carboxamide]: the IC50 is greater than 100 µM at β5c of hu c-20S and 6.75 µM at β5i of hu i-20S.

With `O=C1CCc2cccc(c2)Oc2ccc(cc2)C[C@@H](C(=O)NCc2cccc3ccccc23)NC(=O)[C@H](CC(=O)N2CCCC2)N1` (single isomer, unassigned) [Compound 2-03-A, N-(Naphthalen-1-ylmethyl)-7,10-dioxo-8-(2-oxo-2-(pyrrolidin-1-yl)ethyl)-2-oxa-6,9-diaza-1(1,3),3(1,4)-dibenzenacyclododecaphane-5-carboxamide], the IC50 is 18.5 µM against β5c of hu c-20S and 10.1 µM on β5i of hu i-20S.

Consider `O=C1CCCCCCCCCC[C@@H](C(=O)NCc2cccc3ccccc23)NC(=O)[C@H](CC(=O)N2CCC[C@@H]2c2ccccc2)N1` [Compound 4-08], for which the values for the IC50 against β5c of hu c-20S and against β5i of hu i-20S were greater than 100 µM and 33.4 µM, respectively.

As to `CN(Cc1ccccc1)C(=O)[C@@H]1CCCCOc2cccc(c2)C[C@H](N2CCCC2=O)C(=O)N[C@@H](CCc2ccc(F)cc2)C(=O)N1` [Compound 3-44], the IC50 was 5.15 µM at β5c of hu c-20S and greater than 100 µM against β5i of hu i-20S.

Take `O=C(NC1CCCC1)[C@@H]1Cc2cccc(c2)Oc2cccc(c2)C[C@H](N2CCCS2(=O)=O)C(=O)N[C@@H](CCN2CCOCC2)C(=O)N1` [Compound 1-88, (5S,8S,11S)—N-Cyclopentyl-11-(1,1-dioxidoisothiazolidin-2-yl)-8-(2-morpholinoethyl)-7,10-dioxo-2-oxa-6,9-diaza-1,3(1,3)-dibenzenacyclododecaphane-5-carboxamide]: the “% @ […], hu i-20S” value at β5i of hu i-20S (compound at […]) worked out at 15% @ 33.3 μM.

On to `CN(C)[C@H]1Cc2cccc(c2)OCCCC[C@@H](C(=O)NC2CCCC2)NC(=O)[C@H](CCc2ccc(F)cc2)NC1=O` [Compound 3-36], for which the IC50 was 9.5 µM on β5c of hu c-20S and greater than 100 µM against β5i of hu i-20S.

Take `O=C1CCc2cccc(c2)Oc2ccc(cc2)CC(C(=O)NCc2cccc3ccccc23)NC(=O)C(CC(=O)N2CCCC2)N1` (stereo not drawn) [Compound 2-03-B, N-(Naphthalen-1-ylmethyl)-7,10-dioxo-8-(2-oxo-2-(pyrrolidin-1-yl)ethyl)-2-oxa-6,9-diaza-1(1,3),3(1,4)-dibenzenacyclododecaphane-5-carboxamide]: the IC50 is greater than 100 µM on β5c of hu c-20S and 0.96 µM against β5i of hu i-20S.

As to `O=C(N[C@H]1Cc2cccc(c2)Oc2cccc(c2)C[C@@H](C(=O)NCC(F)(F)F)NC(=O)[C@H](CCc2ccccc2)NC1=O)C1CC1` [Compound 1-54, (5S,8S,11S)-11-(Cyclopropanecarboxamido)-7,10-dioxo-8-phenethyl-N-(2,2,2-trifluoroethyl)-2-oxa-6,9-diaza-1,3(1,3)-dibenzenacyclododecaphane-5-carboxamide], the IC50 on β5c of hu c-20S and against β5i of hu i-20S was greater than 100 µM in each case.

`O=C1CCc2cccc(c2)OCCCC[C@@H](C(=O)NCc2ccccc2F)NC(=O)[C@H](CC(=O)N2CCCC2C2CC2)N1` (single isomer, unassigned) [Compound 3-46-A]: the IC50 on β5c of hu c-20S is 0.0723 µM; at β5i of hu i-20S it was 0.068 µM.

With `O=C1CCCCCCCCCC[C@@H](C(=O)NCc2ccccc2F)NC(=O)[C@H](CC(=O)N2CCCC2C2COC2)N1` (stereo partly drawn) [Compound 4-17], the IC50 amounted to 0.88 µM at β5c of hu c-20S and 0.11 µM against β5i of hu i-20S.

Turning to `CN1C(=O)[C@H](CCN2CCOCC2)NC(=O)[C@@H](N2CCCC2=O)Cc2cccc(c2)Oc2cccc(c2)C[C@H]1C(=O)NCC(F)(F)F` [Compound 1-86, (5S,8S,11S)-6-Methyl-8-(2-morpholinoethyl)-7,10-dioxo-11-(2-oxopyrrolidin-1-yl)-N-(2,2,2-trifluoroethyl)-2-oxa-6,9-diaza-1,3(1,3)-dibenzenacyclododecaphane-5-carboxamide], the IC50 at β5i of hu i-20S came out at 61 µM.

On to `O=C1CCCCCCCCC[C@@H](C(=O)NCc2cccc3ccccc23)NC(=O)[C@H](CC(=O)N2CCCC2)N1` [Compound 4-07], for which the IC50 on β5c of hu c-20S is greater than 100 µM; against β5i of hu i-20S, 61.3 µM.

Turning to `O=C1CCc2cccc(c2)OCCCC[C@@H](C(=O)NCc2ccccc2F)NC(=O)[C@H](CCc2ccc(F)cc2)N1` [Compound 3-41], the IC50 on β5c of hu c-20S was 56 µM; against β5i of hu i-20S it was greater than 100 µM.

In the case of `O=C1CCc2cccc(c2)OCCCC[C@@H](C(=O)NC2CCCC2)NC(=O)[C@H](CC(=O)N2CCCC2C2CC2)N1` (single isomer, unassigned) [Compound 3-45-A], the concentration for half-maximal inhibition (IC50) is 12.3 µM against β5c of hu c-20S and greater than 100 µM against β5i of hu i-20S.

In the case of `CN1C(=O)[C@@H](N2CCCC2=O)Cc2cccc(c2)Oc2cccc(c2)C[C@@H](C(=O)NCC(F)(F)F)NC(=O)[C@@H]1CCc1ccccc1` [Compound 1-64], the IC50 is greater than 100 µM on β5c of hu c-20S and 2.72 µM against β5i of hu i-20S.

As to `C[C@@H]1Cc2cccc(c2)OCCCC[C@@H](C(=O)NC2CCCC2)NC(=O)[C@H](CCN2CCOCC2)NC1=O` (single isomer, unassigned) [Compound 3-38], the IC50 on β5c of hu c-20S was 21.5 µM; against β5i of hu i-20S, greater than 100 µM.

In the case of `CC(C)(C)OC(=O)N[C@H]1Cc2cccc(c2)Oc2cccc(c2)C[C@@H](C(=O)OCc2ccccc2)NC(=O)[C@H](CCc2ccccc2)NC1=O` [Compound 1-50, Benzyl-(S,8S,11S)-11-((tert-butoxycarbonyl)amino)-7,10-dioxo-8-phenethyl-2-oxa-6,9-diaza-1,3(1,3)-dibenzenacyclododecaphane-5-carboxylate], the IC50 against β5c of hu c-20S and against β5i of hu i-20S was greater than 100 µM in each case.

In the case of `O=C1CCCCCCCCCC[C@@H](C(=O)NCc2cccc3ccccc23)NC(=O)[C@H](CC(=O)N2CCCC2)N1` [Compound 4-06, (2S,5S)—N-(1-Naphthylmethyl)-3,16-dioxo-2-(2-oxo-2-pyrrolidin-1-yl-ethyl)-1,4-diazacyclohexadecane-5-carboxamide], the IC50 is greater than 100 µM on β5c of hu c-20S and 3.52 µM on β5i of hu i-20S.

Take `O=C1CCc2cccc(c2)Oc2ccc(cc2)C[C@@H](C(=O)NCc2ccccc2F)NC(=O)[C@H](CC(=O)N2CCCC2)N1` [Compound 2-01-B, (5S,8S)—N-(2-Fluorobenzyl)-7,10-dioxo-8-(2-oxo-2-(pyrrolidin-1-yl)ethyl)-2-oxa-6,9-diaza-1(1,3),3(1,4)-dibenzenacyclododecaphane-5-carboxamide]: the results for the IC50 on β5c of hu c-20S and at β5i of hu i-20S were 75.4 µM and 0.845 µM, respectively.

`Cn1cc(CNC(=O)[C@@H]2Cc3cccc(c3)Oc3cccc(c3)C[C@H](NS(C)(=O)=O)C(=O)N[C@@H](CCc3ccccc3)C(=O)N2)cn1` [Compound 1-04, (5S,8S,11S)—N-((1-Methyl-1H-pyrazol-4-yl)methyl)-11-(methylsulfonamido)-7,10-dioxo-8-phenethyl-2-oxa-6,9-diaza-1,3(1,3)-dibenzenacyclododecaphane-5-carboxamide]: the figures for the IC50 against β5c of hu c-20S and against β5i of hu i-20S were greater than 100 µM and 7.22 µM, respectively.

In the case of `O=C1CCCCCCCCOC[C@@H](C(=O)NCc2ccccc2F)NC(=O)[C@H](CC(=O)N2CCC[C@@H]2c2ccccc2)N1` [Compound 4-16], the IC50 turned out to be 4.12 µM on β5c of hu c-20S and 51.3 µM on β5i of hu i-20S.

`O=C(NCc1ccccc1)[C@@H]1Cc2cccc(c2)Oc2cccc(c2)C[C@H](N2CCCC2)C(=O)N[C@@H](CCc2ccccc2)C(=O)N1` [Compound 1-17]: the IC50 at β5c of hu c-20S is 42.5 µM; against β5i of hu i-20S, 6.6 µM.

Compound `O=C1N[C@@H](CC(=O)N2CCCC2)C(=O)N[C@H](C(=O)NCc2cccc3ccccc23)CCCCCCCCCC1Cc1ccccc1` (stereo in doubt) [Compound 4-04, (2S,5S,15S)-15-Benzyl-N-(naphthalen-1-ylmethyl)-3,16-dioxo-2-(2-oxo-2-(pyrrolidin-1-yl)ethyl)-1,4-diazacyclohexadecane-5-carboxamide] registered an IC50 against β5i of hu i-20S of 61.3 µM.

Turning to `CN(C)[C@H]1Cc2cccc(c2)Oc2cccc(c2)C[C@@H](C(=O)NCC(F)(F)F)NC(=O)[C@H](CCc2ccccc2)NC1=O` [Compound 1-57, (5S,8S,11S)-11-(Dimethylamino)-7,10-dioxo-8-phenethyl-N-(2,2,2-trifluoroethyl)-2-oxa-6,9-diaza-1,3(1,3)-dibenzenacyclododecaphane-5-carboxamide], the IC50 against β5c of hu c-20S worked out at 1.1 µM; on β5i of hu i-20S, 18.7 µM.

In the case of `CC(=O)N[C@H]1Cc2cccc(c2)OCCCC[C@@H](C(=O)NCC(F)(F)F)NC(=O)[C@H](CCc2ccccc2)NC1=O` [Compound 3-02, (3S,6S,9S)-3-Acetamido-4,7-dioxo-6-(2-phenylethyl)-N-(2,2,2-trifluoroethyl)-14-oxa-5,8-diazabicyclo[13.3.1]nonadeca-1(19),15,17-triene-9-carboxamide], the results for the IC50 against β5c of hu c-20S and on β5i of hu i-20S were 0.433 µM and 5.88 µM, respectively.

`CN1CCN(C(=O)[C@@H]2Cc3cccc(c3)Oc3cccc(c3)C[C@H](NC(=O)c3ccccn3)C(=O)N[C@@H](CCc3ccccc3)C(=O)N2)CC1` [Compound 1-52]: the IC50 at β5c of hu c-20S worked out at 30.7 µM; against β5i of hu i-20S it was 33.9 µM.

For the compound `O=C(NCc1ncco1)[C@@H]1CCCCOc2cccc(c2)C[C@H](N2CCCC2=O)C(=O)N[C@@H](CCc2ccccc2)C(=O)N1` [Compound 3-16], the figures for the IC50 against β5c of hu c-20S and against β5i of hu i-20S were 31.9 µM and 82 µM, respectively.

At β5i of hu i-20S, `O=C1CCc2cccc(c2)Oc2cccc(c2)C[C@@H](C(=O)NC2CCCC2)NC(=O)[C@H](CCN2CCOCC2)N1` [Compound 1-89, (5S,8S)—N-Cyclopentyl-8-(2-morpholinoethyl)-7,10-dioxo-2-oxa-6,9-diaza-1,3(1,3)-dibenzenacyclododecaphane-5-carboxamide] had an IC50 greater than 100 µM.
